In the assay the target is T1, AKT1-E17K (Homo sapiens, UniProt P31749, E17K).
T1 construct: host or cells: HEK-293 (ATCC CRL-1573)
As to the kind of experiment: NanoBRET Target Engagement (TE) Assay. In kind it is cell-based. From the text: The NanoBRET™ Target Engagement (TE) Intracellular Kinase Assays are based on the NanoBRET™ System (Promega Corporation), an energy transfer technique designed to measure molecular proximity in living cells. The NanoBRET™ TE Assays measure the apparent affinity of test compounds by competitive displacement of the NanoBRET™ tracer compound, which is a cell permeable molecule engineered to be reversibly bound to a NanoLuc® luciferase-kinase fusion expressed in cells. For compound screening, when a test compound binds to the selected kinase, the BRET signal is attenuated. […] All cells were evaluated for viability prior to transfection and optimization of the transfection was done prior to experimentation. […] Following transfection, cells were washed and resuspended in Opti-MEM. NanoBRET assays were performed in white, 384-well plates (Corning) at a density of […]. All example compounds were prepared as concentrated stock solutions in DMSO (Sigma-Aldrich). Compounds are dissolved in DMSO to make 10 mM stock solution. […] A Labcyte ECHO 550 compound dispenser was used to facilitate compound transfer directly to cells. Cells were equilibrated for 2 hr with energy transfer probes and example compound prior to BRET measurements. […] For target engagement analysis, the energy transfer probes were added to the cells at concentrations optimized for the target in question (AKT E17K). Following compound incubation, NanoBRET NanoGlo Substrate (Promega Cat #N157D) and Extracellular Nanoluc Inhibitor (Promega Cat #N235C) was added according to the manufacturer's recommended protocol, and luminescence was measured on Envision Reader (Perkin Elmer) Multimode Luminometer equipped with 450 nmBPfilter (donor) and 600 nmLPfilter (acceptor), using 0.5 s integration time. Milli-BRET units (mBU) are calculated by multiplying the raw BRET values by 1000. Apparent tracer affinity values (EC50) were determined using the sigmoidal dose-response (variable slope). Competitive displacement data were then plotted and data were fit to determine the EC50 value for each example compound.
In general terms: In BRET a luciferase serves as donor, and the signal depends on an acceptor being close.

T1 sequence (P31749 whole entry E17K): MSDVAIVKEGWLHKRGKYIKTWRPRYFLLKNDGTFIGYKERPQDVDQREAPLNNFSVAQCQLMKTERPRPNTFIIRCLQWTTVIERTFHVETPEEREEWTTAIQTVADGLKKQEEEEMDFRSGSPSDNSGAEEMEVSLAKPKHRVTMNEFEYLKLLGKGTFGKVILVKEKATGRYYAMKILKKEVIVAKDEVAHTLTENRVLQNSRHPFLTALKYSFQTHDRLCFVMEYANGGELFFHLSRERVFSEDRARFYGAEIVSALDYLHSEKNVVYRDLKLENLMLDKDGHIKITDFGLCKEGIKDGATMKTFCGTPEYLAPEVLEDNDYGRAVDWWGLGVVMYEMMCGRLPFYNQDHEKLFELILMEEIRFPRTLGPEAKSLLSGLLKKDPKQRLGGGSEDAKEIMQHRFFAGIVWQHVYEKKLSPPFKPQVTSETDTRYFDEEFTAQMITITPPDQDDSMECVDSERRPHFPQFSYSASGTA

The compound `Nc1ncccc1-c1nc2ccc(-c3ccccc3)nc2n1-c1ccc(CN2C[C@H]3CN(C(=O)c4ccc(C=O)c(O)c4)C[C@@H]3C2)cc1` [Example 136, 4-((3aS,6aS)-5-(4-(2-(2-Aminopyridin-3-yl)-5-phenyl-3H-imidazo[4,5-b]pyridin-3-yl)benzyl)octahydropyrrolo[3,4-c]pyrrole-2-carbonyl)-2-hydroxybenzaldehyde] returned a half-inhibitory concentration (IC50) of 60 to 600 nM.

Take `Nc1ncccc1-c1nc2ccc(-c3ccccc3)nc2n1-c1ccc(CN2CCCCC(NC(=O)c3ccc(O)c(C=O)c3)C2)cc1` (stereo not drawn) [Example 117, N-(1-(4-(2-(2-Aminopyridin-3-yl)-5-phenyl-3H-imidazo[4,5-b]pyridin-3-yl)benzyl)azepan-3-yl)-3-formyl-4-hydroxybenzamide]: the IC50 is greater than 600 nM.

In turn, `Nc1ncccc1-c1nc2ccc(-c3ccc(F)cc3)nc2n1-c1ccc(CN2CCN(C(=O)c3ccc(C=O)c(O)c3)CC2)cc1` [Example 144, 4-(4-(4-(2-(2-Aminopyridin-3-yl)-5-(4-fluorophenyl)-3H-imidazo[4,5-b]pyridin-3-yl)benzyl)piperazine-1-carbonyl)-2-hydroxybenzaldehyde] showed an IC50 of 60 to 600 nM.

In turn, `Nc1ncccc1-c1nc2ccc(N3CCOCC3)nc2n1-c1ccc(CN2CCN(C(=O)c3ccc(O)c(C=O)c3)CC2)cc1` [Example 32, 5-(4-(4-(2-(2-Aminopyridin-3-yl)-5-morpholino-3H-imidazo[4,5-b]pyridin-3-yl)benzyl)piperazine-1-carbonyl)-2-hydroxybenzaldehyde] came in with an IC50 greater than 600 nM.

In the case of `Nc1ncccc1-c1nc2ccc(-c3ccccc3)nc2n1-c1ccc(CN2CC3(CCN(c4ccc(C=O)c(O)c4)C3)C2)cc1` [Example 94, 4-(2-(4-(2-(2-Aminopyridin-3-yl)-5-phenyl-3H-imidazo[4,5-b]pyridin-3-yl)benzyl)-2,6-diazaspiro[3.4]octan-6-yl)-2-hydroxybenzaldehyde], the IC50 fell in the range of 15 to 60 nM.

Compound `Nc1ncccc1-c1nc2ccc(-c3ccccc3)nc2n1-c1ccc(CN2CC3(CC(NC(=O)c4ccc(C=O)c(O)c4)C3)C2)cc1` [Example 70, N-(2-(4-(2-(2-Aminopyridin-3-yl)-5-phenyl-3H-imidazo[4,5-b]pyridin-3-yl)benzyl)-2-azaspiro[3.3]heptan-6-yl)-4-formyl-3-hydroxybenzamide] registered a concentration for half-maximal inhibition (IC50) of 60 to 600 nM.

`Nc1ncccc1-c1nc2ccc(-c3ccccc3)nc2n1-c1ccc(CN2CCC(Nc3ccc(C=O)c(O)c3)CC2)cc1` [Example 47, 4-((1-(4-(2-(2-Aminopyridin-3-yl)-5-phenyl-3H-imidazo[4,5-b]pyridin-3-yl)benzyl)piperidin-4-yl)amino)-2-hydroxybenzaldehyde] displayed an IC50 of 60 to 600 nM.

Consider `Nc1ncccc1-c1nc2ccc(-c3ccc(Cl)cc3)nc2n1-c1ccc(CN2CCN(c3ccc(O)c(C=O)c3)CC2)cc1` [Example 149, 5-(4-(4-(2-(2-aminopyridin-3-yl)-5-(4-chlorophenyl)-3H-imidazo[4,5-b]pyridin-3-yl)benzyl)piperazin-1-yl)-2-hydroxybenzaldehyde], for which the IC50 was greater than 600 nM.

For the compound `Nc1ncccc1-c1nc2ccc(-c3ccccc3)nc2n1-c1ccc(CN2CC3(C2)CN(c2ccc(C=O)c(O)c2)C3)cc1` [Example 89, 4-(6-(4-(2-(2-aminopyridin-3-yl)-5-phenyl-3H-imidazo[4,5-b]pyridin-3-yl)benzyl)-2,6-diazaspiro[3.3]heptan-2-yl)-2-hydroxybenzaldehyde], the IC50 fell in the range of 15 to 60 nM.

`Nc1ncccc1-c1nc2ccc(-c3ccccc3)nc2n1-c1ccc(CN2CC3(CCN(C(=O)c4ccc(O)c(C=O)c4)CC3)C2)cc1` [Example 95, 5-(2-(4-(2-(2-Aminopyridin-3-yl)-5-phenyl-3H-imidazo[4,5-b]pyridin-3-yl)benzyl)-2,7-diazaspiro[3.5]nonane-7-carbonyl)-2-hydroxybenzaldehyde] returned a concentration for half-maximal inhibition (IC50) of 60 to 600 nM.

Turning to `Nc1ncccc1-c1nc2ccc(-c3ccccc3)nc2n1-c1ccc(CN2CCC3(CC2)CC(NC(=O)c2ccc(O)c(C=O)c2)C3)cc1` [Example 68, N-(7-(4-(2-(2-Aminopyridin-3-yl)-5-phenyl-3H-imidazo[4,5-b]pyridin-3-yl)benzyl)-7-azaspiro[3.5]nonan-2-yl)-3-formyl-4-hydroxybenzamide], the half-maximal inhibitory concentration (IC50) fell in the range of 15 to 60 nM.

The compound `Nc1ncccc1-c1nc2ccc(-c3ccccc3)nc2n1-c1ccc(CN2CCC3(CC2)CN(C(=O)c2ccc(C=O)c(O)c2)C3)cc1` [Example 71, 4-(7-(4-(2-(2-Aminopyridin-3-yl)-5-phenyl-3H-imidazo[4,5-b]pyridin-3-yl)benzyl)-2,7-diazaspiro[3.5]nonane-2-carbonyl)-2-hydroxybenzaldehyde] registered a half-maximal inhibitory concentration (IC50) greater than 600 nM.

Turning to `Nc1ncccc1-c1nc2cccnc2n1-c1ccc(CN2CCN(c3ccc(C=O)c(O)c3)CC2)cc1` [Example 16, 4-(4-(4-(2-(2-Aminopyridin-3-yl)-3H-imidazo[4,5-b]pyridin-3-yl)benzyl)piperazin-1-yl)-2-hydroxybenzaldehyde], the IC50 was in the range of 60 to 600 nM.

Turning to `C[C@H](NC(=O)c1ccc(O)c(C=O)c1)c1ccc(-n2c(-c3cccnc3N)nc3ccc(-c4ccccc4)nc32)cc1` [Example 140, (S)—N-(1-(4-(2-(2-Aminopyridin-3-yl)-5-phenyl-3H-imidazo[4,5-b]pyridin-3-yl)phenyl)ethyl)-3-formyl-4-hydroxybenzamide], the IC50 is 15 to 60 nM.

`Nc1ncccc1-c1nc2ccc(-c3ccccc3)nc2n1-c1ccc(CN2CC3CCC(C2)N3c2ccc(C=O)c(O)c2)cc1` [Example 111, 4-(3-(4-(2-(2-Aminopyridin-3-yl)-5-phenyl-3H-imidazo[4,5-b]pyridin-3-yl)benzyl)-3,8-diazabicyclo[3.2.1]octan-8-yl)-2-hydroxybenzaldehyde] showed an IC50 greater than 600 nM.

`Nc1ncccc1-c1nc2cccnc2n1-c1ccc(CNC(=O)c2ccc(O)c(C=O)c2)cc1` [Example 2, N-(4-(2-(2-Aminopyridin-3-yl)-3H-imidazo[4,5-b]pyridin-3-yl)benzyl)-3-formyl-4-hydroxybenzamide] displayed an IC50 of 60 to 600 nM.

As to `Nc1ncccc1-c1nc2ccc(-c3ccccc3)nc2n1-c1ccc(CN2CCC(Nc3cccc(C=O)c3O)CC2)cc1` [Example 50, 3-((I-(4-(2-(2-Aminopyridin-3-yl)-5-phenyl-3H-imidazo[4,5-b]pyridin-3-yl)benzyl)piperidin-4-yl)amino)-2-hydroxybenzaldehyde], the 50% inhibitory concentration (IC50) was in the range of 15 to 60 nM.

For `Nc1ncccc1-c1nc2ccc(-c3ccccc3)nc2n1-c1ccc(CN2CC3(CCN(C(=O)c4ccc(C=O)c(O)c4)CC3)C2)cc1` [Example 96, 4-(2-(4-(2-(2-Aminopyridin-3-yl)-5-phenyl-3H-imidazo[4,5-b]pyridin-3-yl)benzyl)-2,7-diazaspiro[3.5]nonane-7-carbonyl)-2-hydroxybenzaldehyde], the half-inhibitory concentration (IC50) lay in the range of 60 to 600 nM.

For the compound `Nc1ncccc1-c1nc2ccc(-c3ccccc3)nc2n1-c1ccc(CN2CC3CCC2CN3C(=O)c2ccc(C=O)c(O)c2)cc1` (stereo not drawn) [Example 125, 4-(5-(4-(2-(2-aminopyridin-3-yl)-5-phenyl-3H-imidazo[4,5-b]pyridin-3-yl)benzyl)-2,5-diazabicyclo[2.2.2]octane-2-carbonyl)-2-hydroxybenzaldehyde], the IC50 was in the range of 60 to 600 nM.

Compound `Nc1ncccc1-c1nc2ccc(-c3ccccc3)nc2n1-c1ccc(CN2CC3(C2)CN(C(=O)c2ccc(O)c(C=O)c2)C3)cc1` [Example 62, 5-(6-(4-(2-(2-Aminopyridin-3-yl)-5-phenyl-3H-imidazo[4,5-b]pyridin-3-yl)benzyl)-2,6-diazaspiro[3.3]heptane-2-carbonyl)-2-hydroxybenzaldehyde] showed an IC50 of less than 15 nM.

For the compound `Nc1ncccc1-c1nc2ccc(-c3ccccc3)nc2n1-c1ccc(CN2CC3(CCN(c4ccc(C=O)c(O)c4)CC3)C2)cc1` [Example 97, 4-(2-(4-(2-(2-Aminopyridin-3-yl)-5-phenyl-3H-imidazo[4,5-b]pyridin-3-yl)benzyl)-2,7-diazaspiro[3.5]nonan-7-yl)-2-hydroxybenzaldehyde], the IC50 lay in the range of 60 to 600 nM.

On to `Nc1ncccc1-c1nc2ccc(-c3ccc(Cl)cc3)nc2n1-c1ccc(CN2CCN(C(=O)c3ccc(O)c(C=O)c3)CC2)cc1` [Example 147, 5-(4-(4-(2-(2-aminopyridin-3-yl)-5-(4-chlorophenyl)-3H-imidazo[4,5-b]pyridin-3-yl)benzyl)piperazine-1-carbonyl)-2-hydroxybenzaldehyde], for which the IC50 was greater than 600 nM.

`Nc1ncccc1-c1nc2ccc(-c3ccccc3)nc2n1-c1ccc(CN2C3CCC2CN(C(=O)c2ccc(C=O)c(O)c2)C3)cc1` [Example 113, 4-(8-(4-(2-(2-Aminopyridin-3-yl)-5-phenyl-3H-imidazo[4,5-b]pyridin-3-yl)benzyl)-3,8-diazabicyclo[3.2.1]octane-3-carbonyl)-2-hydroxybenzaldehyde] had an IC50 of 60 to 600 nM.

`CN(Cc1ccc(-n2c(-c3cccnc3N)nc3ccc(-c4ccccc4)nc32)cc1)c1ccc(C=O)c(O)c1` [Example 17, 4-((4-(2-(2-Aminopyridin-3-yl)-5-phenyl-3H-imidazo[4,5-b]pyridin-3-yl)benzyl)(methyl)amino)-2-hydroxybenzaldehyde] displayed a half-maximal inhibitory concentration (IC50) of 60 to 600 nM.

By IC50 is commonly meant the point on the concentration scale where inhibition reaches its midpoint. Low values mean greater potency, high ones weaker potency.
